Where “and” joins values, the source holds several entries; their conditions need not be identical. Identical values can stand only once.
How the values were obtained:
[1] = tested on: lymphocytes from CLL patients; experiment: MTT cytotoxic assay, lymphocytes from CLL patients; assay type: cell-based, human; conditions: drug alone
I83 cell line = conditions: drug alone, MTT 72 hours

O=C(O)CCCc1ccc(N(CCCl)CCCl)cc1 [CLB, chlorambucil]
LD50 ([1]; CLL patient T^1 (previously treated with CLB)): 9.29 µM | LD50 ([1]; CLL patient T^2 (previously treated with CLB)): 23.1 µM | LD50 ([1]; CLL patient T^3 (previously treated with CLB)): 5.56 µM | LD50 ([1]; CLL patient T^4 (previously treated with CLB)): 79.7 µM | LD50 ([1]; CLL patient T^5 (previously treated with CLB)): 49.2 µM | LD50 ([1]; CLL patient U^1 (untreated)): 14.6 µM | LD50 ([1]; CLL patient U^2 (untreated)): 28.49 µM | LD50 ([1]; CLL patient U^3 (untreated)): 20.02 µM | LD50 ([1]; CLL patient U^4 (untreated)): 54.2 µM | LD50 ([1]; CLL patient U^5 (untreated)): 12.27 µM | LD50 ([1]; CLL patient U^6 (untreated)): 18.08 µM | LD50 ([1]; CLL patient U^7 (untreated)): 7.84 µM | LD50 (I83 cell line): 40.66 µM and 40.66 ± 2.80 µM

Reference: patent publication US8492383B2 (Jewish General Hospital, priority 2002, dated 2013)
